Patent US8084046B2 (priority 2001, dated 2011)
“And” between values parts separate entries of the source, which are not always exact repeats. Equal entries are not always repeated. Where two headings read alike, the source gives them in different places.

How the values were obtained:
Type in all cases: cell-based
S. aureus (MN8) [1] = details: 24 h
S. aureus MN8 [2] = test system: S. aureus MN8
S. aureus MN8 [3] = test system: S. aureus MN8; parameters: ngTSST-1 per CFU: scale not given here; details: for % Reduction / ngTSST-1 per CFU: terpineol 0%
S. aureus (MN8) [4] = test system: S. aureus (MN8)

CC1(O)CCC(C(C)(C)O)CC1 (stereo not shown) [p-menthane-1,8-diol]
ng TSST-1 per OD Unit (S. aureus (MN8) [1]): 792

myreth-3-myristate [Cetiol]
% CFU/mL × 10^6 (S. aureus MN8 [2]): 5.9 and 5.0 and 4.2 | ng TSST-1 per mL (S. aureus MN8 [3]): 1147 and 989 and 1556 | % Reduction (S. aureus MN8 [3]; Cetiol 2.5 mM): 0% | ngTSST-1 per CFU (S. aureus MN8 [3]; Cetiol 2.5 mM): 371 ng per CFU | % Reduction (S. aureus MN8 [3]; Cetiol 5.0 mM): 39% | ngTSST-1 per CFU (S. aureus MN8 [3]; Cetiol 5.0 mM): 196 ng per CFU | % Reduction (S. aureus MN8 [3]; Cetiol 10.0 mM): 37% | ngTSST-1 per CFU (S. aureus MN8 [3]; Cetiol 10.0 mM): 200 ng per CFU

C=CC(C)(O)CCC=C(C)C (stereo not shown) [Linalool]
ng TSST-1 per OD Unit (S. aureus (MN8) [1]): 421

CC(C)=CCC/C(C)=C/CO [Geraniol]
ng TSST-1 per OD Unit (S. aureus (MN8) [1]): 26

CC1CCC(C(C)C)C(O)C1 (stereo not shown) [Menthol]
effect on the growth of S. aureus cells (S. aureus (MN8) [4]): minimal, if any, effect on the growth of S. aureus cells | ng TSST-1 per OD Unit (S. aureus (MN8) [1]): 33
